# Columns and labels:
# [1] = system: several cultured human cancer cell lines; settings: cited from earlier work
# [2] = system: Corynebacterium striatum T46C1; assay: Antimicrobial assay (MIC, agar dilution); assay type: cell-based
# Protocol: (§1) The antimicrobial activity of crude extract and partitions was evaluated against 36 pathogenic microorganisms (22 Gram-positive bacteria, 13 Gram-negative bacteria, and 1 yeast) according to Mahamodo et al.. The 36 microorganisms were grown overnight at 37°C on sloping Mueller-Hinton (MH) agar medium. Briefly, the bacteria were diluted with Ringer's Cysteine (RC) solution to obtain 10^6 bacteria/ml. […] Inocula of 10^4 colony forming units (CFU) were spotted ultimately with a multipoint inoculator (Steers Replicator).
# [3] = system: Enterococcus faecalis T37B1; assay: Antimicrobial assay (MIC, agar dilution); assay type: cell-based
# Protocol: as §1
# [4] = system: Pseudomonas aeruginosa T41; assay: Antimicrobial assay (MIC, agar dilution); assay type: cell-based
# Protocol: as §1
# [5] = system: Staphylococcus aureus T26A4; assay: Antimicrobial assay (MIC, agar dilution); assay type: cell-based
# Protocol: as §1
# [6] = system: Staphylococcus lugdunensis T47B2; assay: Antimicrobial assay (MIC, agar dilution); assay type: cell-based
# Protocol: as §1
# [7] = system: Staphylococcus lugdunensis T36A1; assay: Antimicrobial assay (MIC, agar dilution); assay type: cell-based
# Protocol: as §1
# [8] = system: Streptococcus agalactiae T53A4; assay: Antimicrobial assay (MIC, agar dilution); assay type: cell-based; settings: amoxicillin
# Protocol: as §1
# [9] = system: Staphylococcus aureus T2510; assay: Antimicrobial assay (MIC, agar dilution); assay type: cell-based
# Protocol: as §1
# [10] = system: Staphylococcus epidermidis T19A1; assay: Antimicrobial assay (MIC, agar dilution); assay type: cell-based
# Protocol: as §1
# [11] = system: Staphylococcus aureus T281; assay: Antimicrobial assay (MIC, agar dilution); assay type: cell-based
# Protocol: as §1
# [12] = system: Dermabacter hominis T49B5; assay: Antimicrobial assay (MIC, agar dilution); assay type: cell-based
# Protocol: as §1
# [13] = system: Enterococcus faecalis T47A16; assay: Antimicrobial assay (MIC, agar dilution); assay type: cell-based
# Protocol: as §1
# [14] = system: Pseudomonas aeruginosa ATCC9027; assay: Antimicrobial assay (MIC, agar dilution); assay type: cell-based
# Protocol: as §1
# [15] = system: Staphylococcus aureus T21; assay: Antimicrobial assay (MIC, agar dilution); assay type: cell-based
# Protocol: as §1
# [16] = system: Staphylococcus epidermidis T151; assay: Antimicrobial assay (MIC, agar dilution); assay type: cell-based
# Protocol: as §1
# [17] = system: Staphylococcus aureus T306; assay: Antimicrobial assay (MIC, agar dilution); assay type: cell-based
# Protocol: as §1
# [18] = system: Staphylococcus aureus 8148; assay: Antimicrobial assay (MIC, agar dilution); assay type: cell-based
# Protocol: as §1
# [19] = system: Corynebacterium striatum T40A3; assay: Antimicrobial assay (MIC, agar dilution); assay type: cell-based
# Protocol: as §1
# [20] = system: Escherichia coli T20A2; assay: Antimicrobial assay (MIC, agar dilution); assay type: cell-based
# Protocol: as §1
# [21] = system: Staphylococcus aureus 8143; assay: Antimicrobial assay (MIC, agar dilution); assay type: cell-based
# Protocol: as §1
# [22] = system: Staphylococcus pettenkoferi T282; assay: Antimicrobial assay (MIC, agar dilution); assay type: cell-based
# Protocol: as §1
# [23] = system: Staphylococcus aureus T11; assay: Antimicrobial assay (MIC, agar dilution); assay type: cell-based
# Protocol: as §1
# [24] = system: Staphylococcus aureus 8142; assay: Antimicrobial assay (MIC, agar dilution); assay type: cell-based
# Protocol: as §1
# [25] = system: Staphylococcus pettenkoferi T33; assay: Antimicrobial assay (MIC, agar dilution); assay type: cell-based
# Protocol: as §1
# [26] = system: Staphylococcus capitis T29A2; assay: Antimicrobial assay (MIC, agar dilution); assay type: cell-based
# Protocol: as §1
# [27] = system: Staphylococcus aureus T61; assay: Antimicrobial assay (MIC, agar dilution); assay type: cell-based
# Protocol: as §1
# [28] = system: Staphylococcus capitis T21A3; assay: Antimicrobial assay (MIC, agar dilution); assay type: cell-based
# Protocol: as §1
# [29] = system: Staphylococcus saprophyticus 8237; assay: Antimicrobial assay (MIC, agar dilution); assay type: cell-based
# Protocol: as §1
# [30] = system: Dermabacter hominis T47A7; assay: Antimicrobial assay (MIC, agar dilution); assay type: cell-based
# Protocol: as §1
# [31] = system: WI38 (human normal fibroblast-like lung cell line); assay: MTT cytotoxicity assay on WI38; assay type: cell-based; settings: WI-38, 72 h, mean ± SEM, six determinations
# Protocol: (§2) Cell Culture. The cytotoxicity was evaluated on two cell lines: J774 (macrophage-like cell line, derived from BALB/c murine reticulum cell sarcoma) and WI38 (human normal fibroblast-like lung cell line), using the tetrazolium salt MTT [3-(4,5-dimethylthiazol-2-yl)-2,5-diphenyltetrazolium bromide (Sigma)] colorimetric method, as described by Bero et al.. J774 cells were cultivated in a humidified atmosphere with 5% CO2 at 37°C in RPMI 1640 medium (Life Technologies, Paisley, UK) containing 2 mM L-glutamine supplemented with 10% heat-inactivated fetal bovine serum (Life Technologies) and penicillin-streptomycin (100 UI/ml). WI38 cells were cultivated in a humidified atmosphere with 5% CO2 at 37°C in DMEM medium (Life Technologies) containing 4 mM L-glutamine, 1 mM sodium pyruvate supplemented with 10% heat-inactivated fetal bovine serum (Life Technologies), and penicillin-streptomycin (100 UI/ml).
# Cytotoxicity Assay. Briefly, WI38 or J774 cells were seeded in 96-well plates (5000 cells/well/180 µl medium or 2.8 × 10^4 cells/ml). After 24 h, cells were treated with 20 μl of crude extract and partitions solutions in a fixed concentration of 50 µg/ml to calculate cell viability percentage. […] Absorbance was recorded at 570 nm and 620 nm. […]
# (§3) Cell viability% = [AT/ANT] × 100, with A: absorbance, NT: control cells, and T: treated cells.
# [32] = system: J774 (macrophage-like cell line, derived from BALB/c murine reticulum cell sarcoma); assay: MTT cytotoxicity assay on J774; assay type: cell-based
# Protocol: as §2
# Cytotoxicity Assay. Briefly, WI38 or J774 cells were seeded in 96-well plates (5000 cells/well/180 µl medium or 2.8 × 10^4 cells/ml). After 24 h, cells were treated with 20 μl of crude extract and partitions solutions in a fixed concentration of 50 µg/ml to calculate cell viability percentage. […] After 72 h, the medium was replaced by 100 μl of a 10% MTT solution (3 mg/ml in PBS) in medium. After 45 min, the medium was removed again and 100 μl of DMSO was added to solubilize formed formazan crystals. Absorbance was recorded at 570 nm and 620 nm. Each sample was tested in eight serial […] dilutions in 96-well microtiter plates, at least three wells per concentration in duplicate. Camptothecin (Sigma) was used as positive control (concentration range: 25–0.00032 µg/ml).
# as §3
smiles,measurement,setting,value
"C=C(C)C(CC[C@@H](C)[C@H]1CC[C@@]2(C)[C@@H]3CC[C@H]4C(C)(C)[C@@H](O)CC[C@@]45C[C@@]35CC[C@]12C)OO (stereo partly drawn) [Compound 3b, 24-hydroperoxycycloart-25-en-3β-ol]",cytotoxic activity,[1],significant cytotoxic activity
"CC1(C)S[C@@H]2[C@H](NC(=O)[C@H](N)c3ccc(O)cc3)C(=O)N2[C@H]1C(=O)O [Amox, amoxicillin]",Reference antibiotics MIC values,[2]; amoxicillin,"S (Amox (amoxicillin), S: ≤4)"
same,Reference antibiotics MIC values,[3]; amoxicillin,"S (Amox (amoxicillin), S: ≤4)"
same,Reference antibiotics MIC values,[4]; amoxicillin,R (R: >16)
same,Reference antibiotics MIC values,[5]; amoxicillin,R (R: >16)
same,Reference antibiotics MIC values,[6]; amoxicillin,"S (Amox (amoxicillin), S: ≤4)"
same,Reference antibiotics MIC values,[7]; amoxicillin,"S (Amox (amoxicillin), S: ≤4)"
same,Reference antibiotics MIC values,[8],R (R: >16)
same,Reference antibiotics MIC values,[9]; amoxicillin,R (R: >16)
same,Reference antibiotics MIC values,[10]; amoxicillin,"S (Amox (amoxicillin), S: ≤4)"
same,Reference antibiotics MIC values,[11]; amoxicillin,R (R: >16)
same,Reference antibiotics MIC values,[12]; amoxicillin,"S (Amox (amoxicillin), S: ≤4)"
same,Reference antibiotics MIC values,[13]; amoxicillin,R (R: >16)
same,Reference antibiotics MIC values,[14]; amoxicillin,R (R: >16)
same,Reference antibiotics MIC values,[15]; amoxicillin,R (R: >16)
same,Reference antibiotics MIC values,[16]; amoxicillin,R (R: >16)
same,Reference antibiotics MIC values,[17]; amoxicillin,"S (Amox (amoxicillin), S: ≤4)"
same,Reference antibiotics MIC values,[18]; amoxicillin,R (R: >16)
same,Reference antibiotics MIC values,[19]; amoxicillin,R (R: >16)
same,Reference antibiotics MIC values,[20]; amoxicillin,"S (Amox (amoxicillin), S: ≤4)"
same,Reference antibiotics MIC values,[21]; amoxicillin,"S (Amox (amoxicillin), S: ≤4)"
same,Reference antibiotics MIC values,[22]; amoxicillin,"S (Amox (amoxicillin), S: ≤4)"
same,Reference antibiotics MIC values,[23]; amoxicillin,R (R: >16)
same,Reference antibiotics MIC values,[24]; amoxicillin,R (R: >16)
same,Reference antibiotics MIC values,[25]; amoxicillin,R (R: >16)
same,Reference antibiotics MIC values,[26]; amoxicillin,"S (Amox (amoxicillin), S: ≤4)"
same,Reference antibiotics MIC values,[27]; amoxicillin,R (R: >16)
same,Reference antibiotics MIC values,[28]; amoxicillin,"S (Amox (amoxicillin), S: ≤4)"
same,Reference antibiotics MIC values,[29]; amoxicillin,"S (Amox (amoxicillin), S: ≤4)"
same,Reference antibiotics MIC values,[30]; amoxicillin,R (R: >16)
CC[C@@]1(O)C(=O)OCc2c1cc1n(c2=O)Cc2cc3ccccc3nc2-1 [Camptothecin],IC50,[31],0.175 ± 0.029 µg/mL
same,IC50,"[32]; Mus musculus, J774, MTT, 72 h, mean ± SEM, six determinations",0.011 ± 0.002 µg/mL
same,SI (IC50 WI38/IC50 J774),[32]; selectivity index WI38 vs J774,15^∗∗∗
"CNC(C)C1CCC(N)C(OC2C(N)CC(N)C(OC3OCC(C)(O)C(NC)C3O)C2O)O1 (stereo not shown) [Gent, gentamicin]",Reference antibiotics MIC values,[2]; gentamicin,"S (Gent (gentamicin), S: ≤4)"
same,Reference antibiotics MIC values,[3]; gentamicin,"S (Gent (gentamicin), S: ≤4)"
same,Reference antibiotics MIC values,[4]; gentamicin,"S (Gent (gentamicin), S: ≤4)"
same,Reference antibiotics MIC values,[5]; gentamicin,"S (Gent (gentamicin), S: ≤4)"
same,Reference antibiotics MIC values,[6]; gentamicin,"S (Gent (gentamicin), S: ≤4)"
same,Reference antibiotics MIC values,[7]; gentamicin,"S (Gent (gentamicin), S: ≤4)"
same,Reference antibiotics MIC values,[9]; gentamicin,"S (Gent (gentamicin), S: ≤4)"
same,Reference antibiotics MIC values,[10]; gentamicin,"S (Gent (gentamicin), S: ≤4)"
same,Reference antibiotics MIC values,[11]; gentamicin,"S (Gent (gentamicin), S: ≤4)"
same,Reference antibiotics MIC values,[12]; gentamicin,"S (Gent (gentamicin), S: ≤4)"
same,Reference antibiotics MIC values,[13]; gentamicin,"S (Gent (gentamicin), S: ≤4)"
same,Reference antibiotics MIC values,[14]; gentamicin,"S (Gent (gentamicin), S: ≤4)"
same,Reference antibiotics MIC values,[15]; gentamicin,"S (Gent (gentamicin), S: ≤4)"
same,Reference antibiotics MIC values,[16]; gentamicin,R (R: >8)
same,Reference antibiotics MIC values,[17]; gentamicin,"S (Gent (gentamicin), S: ≤4)"
same,Reference antibiotics MIC values,[18]; gentamicin,"S (Gent (gentamicin), S: ≤4)"
same,Reference antibiotics MIC values,[19]; gentamicin,R (R: >8)
same,Reference antibiotics MIC values,[20]; gentamicin,R (R: >8)
same,Reference antibiotics MIC values,[21]; gentamicin,"S (Gent (gentamicin), S: ≤4)"
same,Reference antibiotics MIC values,[22]; gentamicin,"S (Gent (gentamicin), S: ≤4)"
same,Reference antibiotics MIC values,[23]; gentamicin,"S (Gent (gentamicin), S: ≤4)"
same,Reference antibiotics MIC values,[24]; gentamicin,"S (Gent (gentamicin), S: ≤4)"
same,Reference antibiotics MIC values,[25]; gentamicin,"S (Gent (gentamicin), S: ≤4)"
same,Reference antibiotics MIC values,[26]; gentamicin,"S (Gent (gentamicin), S: ≤4)"
same,Reference antibiotics MIC values,[27]; gentamicin,"S (Gent (gentamicin), S: ≤4)"
same,Reference antibiotics MIC values,[28]; gentamicin,"S (Gent (gentamicin), S: ≤4)"
same,Reference antibiotics MIC values,[29]; gentamicin,"S (Gent (gentamicin), S: ≤4)"
same,Reference antibiotics MIC values,[30]; gentamicin,"S (Gent (gentamicin), S: ≤4)"

# Reference: publication PMC5529658, “Antiproliferative and Antibacterial Activities of Cirsium scabrum from Tunisia” (Evidence-based Complementary and Alternative Medicine : eCAM, 2017)
